Columns and labels:
[1] = tested on: Ca^2+ channel (L, diltiazem site) (benzothiazepines); assay: Binding Ca2+ channel (L, diltiazem site) (aa); parameters: species or system rat
Experimental: (§1) Radioligand binding assay methods utilized to measure the activity of compounds of the invention will be familiar to those skilled in the art. In each assay case, the assay components such as, for example, the cell-type, ligand, reference compound and the like, will be familiar to practitioners of such an assay.
(§2) Analysis and Expression of Results: Compounds of the invention were tested in the biochemical assays and percent inhibition of specific binding was determined. The specific ligand binding to the receptors is defined as the difference between the total binding and the nonspecific binding determined in the presence of an excess of unlabelled ligand. The results are expressed as a percent inhibition of control specific binding (100−((measured specific binding/control specific binding)×100)) obtained in the presence of test compounds.

Bradykinin B2 (h) = biological target: T1, Bradykinin B2 (h) (Homo sapiens, UniProt P30411); assay: Binding B2 (h) (ag); conditions: read-out: % Inhibition of Control Specific Binding @ 10 μM
T1 construct: expressed in transfected cells; host or cells: CHO cells
T1 sequence (P30411 1-391): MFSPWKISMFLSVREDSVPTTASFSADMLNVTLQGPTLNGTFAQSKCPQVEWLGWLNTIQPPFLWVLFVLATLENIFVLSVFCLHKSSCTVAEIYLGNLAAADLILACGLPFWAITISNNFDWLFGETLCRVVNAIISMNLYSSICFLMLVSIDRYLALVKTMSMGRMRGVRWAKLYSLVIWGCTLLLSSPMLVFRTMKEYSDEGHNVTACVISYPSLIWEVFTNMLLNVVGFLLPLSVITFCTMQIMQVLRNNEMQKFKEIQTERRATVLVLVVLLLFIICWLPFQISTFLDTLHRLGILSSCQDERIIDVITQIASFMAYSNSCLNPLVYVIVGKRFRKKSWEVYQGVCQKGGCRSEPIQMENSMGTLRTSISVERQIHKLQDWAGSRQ
Experimental: as §1, §2

Neurokinin NK1 (h) = biological target: T2, Neurokinin NK1 (h) (Homo sapiens, UniProt P25103); assay: Binding NK1 (h) (ag); conditions: read-out: % Inhibition of Control Specific Binding @ 10 μM
T2 construct: (endogenous); endogenous in cells; host or cells: U-373MG cells
T2 sequence (P25103 whole entry): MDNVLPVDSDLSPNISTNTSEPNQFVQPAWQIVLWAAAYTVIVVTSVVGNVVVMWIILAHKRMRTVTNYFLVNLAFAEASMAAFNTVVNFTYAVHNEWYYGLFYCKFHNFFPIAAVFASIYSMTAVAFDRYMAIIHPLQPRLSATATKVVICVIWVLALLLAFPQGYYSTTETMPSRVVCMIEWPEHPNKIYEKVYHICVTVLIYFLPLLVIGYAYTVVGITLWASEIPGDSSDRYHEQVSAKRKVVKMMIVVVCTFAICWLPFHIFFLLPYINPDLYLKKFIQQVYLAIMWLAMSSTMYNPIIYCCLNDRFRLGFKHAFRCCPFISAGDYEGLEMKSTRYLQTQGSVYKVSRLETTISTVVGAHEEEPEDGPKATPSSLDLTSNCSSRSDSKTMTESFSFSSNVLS
Experimental: as §1, §2

Adrenergic α2 (ns) = assay: Binding α2 (ns) (aa); parameters: species or system rat
Experimental: as §1, §2

GABA transaminase = biological target: T3, GABA transaminase (Rattus norvegicus, UniProt P50554); assay: Enzyme assay GABA transaminase; format: biochemical; conditions: read-out: % Inhibition of Control Values @ 10 μM
T3 construct: rat brain; from tissue; host or cells: rat brain
T3 sequence (P50554 28-500): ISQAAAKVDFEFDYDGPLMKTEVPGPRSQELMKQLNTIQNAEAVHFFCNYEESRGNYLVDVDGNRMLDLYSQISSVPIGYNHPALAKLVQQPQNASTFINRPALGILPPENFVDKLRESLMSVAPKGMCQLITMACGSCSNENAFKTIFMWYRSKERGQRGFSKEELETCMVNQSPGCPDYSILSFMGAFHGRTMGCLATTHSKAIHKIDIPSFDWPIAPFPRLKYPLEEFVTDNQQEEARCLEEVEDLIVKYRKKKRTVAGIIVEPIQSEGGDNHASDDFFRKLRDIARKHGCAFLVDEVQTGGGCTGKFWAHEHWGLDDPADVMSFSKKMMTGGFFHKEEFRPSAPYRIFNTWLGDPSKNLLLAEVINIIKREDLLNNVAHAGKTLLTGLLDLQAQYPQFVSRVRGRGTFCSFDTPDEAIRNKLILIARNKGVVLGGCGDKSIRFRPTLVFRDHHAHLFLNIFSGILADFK
Text: The enzyme assays provided below will be familiar to those skilled in the art.
Analysis and Expression of Results: The results are expressed as a percent of control specific activity ((measured specific activity/control specific activity)×100) obtained in the presence of the test compounds.

[2] = biological target: T4, Cholecystokinin CCK2 (CCKB) (h) (Homo sapiens, UniProt P32239); assay: Binding CCK2 (CCKB) (h) (ag); conditions: read-out: % Inhibition of Control Specific Binding @ 10 μM
T4 construct: expressed in transfected cells; host or cells: CHO cells
T4 sequence (P32239 1-447): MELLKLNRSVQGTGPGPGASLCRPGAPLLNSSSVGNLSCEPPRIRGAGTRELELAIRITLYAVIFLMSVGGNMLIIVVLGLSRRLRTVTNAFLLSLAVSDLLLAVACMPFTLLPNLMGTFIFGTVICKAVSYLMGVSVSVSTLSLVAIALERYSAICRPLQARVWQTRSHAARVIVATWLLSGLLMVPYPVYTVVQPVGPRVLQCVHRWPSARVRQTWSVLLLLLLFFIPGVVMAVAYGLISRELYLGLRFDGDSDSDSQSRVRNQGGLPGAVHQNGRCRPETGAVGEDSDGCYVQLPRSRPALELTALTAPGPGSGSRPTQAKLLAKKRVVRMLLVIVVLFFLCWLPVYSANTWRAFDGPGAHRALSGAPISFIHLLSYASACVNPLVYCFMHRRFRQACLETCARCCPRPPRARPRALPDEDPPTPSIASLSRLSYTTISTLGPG
Experimental: as §1, §2

hERG = biological target: T5, hERG (Homo sapiens, UniProt Q12809); assay: Binding hERG (membrane preparation) (aa); conditions: read-out: % Inhibition of Control Specific Binding @ 10 μM
T5 construct: expressed in transfected cells; host or cells: HEK-293 cells
T5 sequence (Q12809 whole entry): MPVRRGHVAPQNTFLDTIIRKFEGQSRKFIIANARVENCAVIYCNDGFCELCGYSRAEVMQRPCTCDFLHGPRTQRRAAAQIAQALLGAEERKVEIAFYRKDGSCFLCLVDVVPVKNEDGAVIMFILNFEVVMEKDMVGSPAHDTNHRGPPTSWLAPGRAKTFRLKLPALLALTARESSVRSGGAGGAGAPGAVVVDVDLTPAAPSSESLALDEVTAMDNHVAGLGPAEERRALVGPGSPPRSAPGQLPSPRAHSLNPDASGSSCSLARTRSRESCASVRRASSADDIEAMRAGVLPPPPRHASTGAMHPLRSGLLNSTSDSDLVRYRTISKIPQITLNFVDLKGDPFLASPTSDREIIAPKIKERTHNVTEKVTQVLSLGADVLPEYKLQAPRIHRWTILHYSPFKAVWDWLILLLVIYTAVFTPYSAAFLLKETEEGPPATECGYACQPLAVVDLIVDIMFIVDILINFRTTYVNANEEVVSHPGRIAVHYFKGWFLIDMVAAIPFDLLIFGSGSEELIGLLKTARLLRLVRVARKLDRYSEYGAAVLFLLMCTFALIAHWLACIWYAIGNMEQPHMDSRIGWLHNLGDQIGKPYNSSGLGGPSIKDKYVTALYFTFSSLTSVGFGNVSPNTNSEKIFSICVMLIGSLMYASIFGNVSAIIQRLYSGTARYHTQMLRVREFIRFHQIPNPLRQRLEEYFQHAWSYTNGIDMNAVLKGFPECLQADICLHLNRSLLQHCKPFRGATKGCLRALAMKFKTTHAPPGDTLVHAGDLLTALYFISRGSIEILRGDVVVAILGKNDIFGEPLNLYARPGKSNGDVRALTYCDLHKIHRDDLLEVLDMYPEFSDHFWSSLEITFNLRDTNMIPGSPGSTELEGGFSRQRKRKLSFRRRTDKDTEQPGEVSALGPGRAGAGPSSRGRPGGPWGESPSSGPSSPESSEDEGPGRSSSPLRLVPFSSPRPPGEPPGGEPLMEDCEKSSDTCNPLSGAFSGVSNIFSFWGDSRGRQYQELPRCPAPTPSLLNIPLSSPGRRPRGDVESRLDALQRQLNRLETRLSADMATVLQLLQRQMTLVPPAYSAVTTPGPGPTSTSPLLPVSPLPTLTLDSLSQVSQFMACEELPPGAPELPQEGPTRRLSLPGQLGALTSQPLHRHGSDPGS
Experimental: as §1, §2

[3] = Quantification of RD162′ metabolites in human plasma; format: in vivo; conditions: for Concentrations in Patients' Plasma Expressed as a Percentage of the Concentration of RD162′, Average / Concentrations in Patients' Plasma Expressed as a Percentage of the Concentration of RD162′, Maximum / Concentrations in Patients' Plasma Expressed as a Percentage of the Concentration of RD162′, Minimum: 18 patients; for Concentrations in Patients' Plasma Expressed as a Percentage of the Concentration of RD162′, Minimum: RD162′ 150 to 480 mg per day, approx. three months; for concentration in the plasma (in words): plasma of 18 prostate cancer patients on RD162′
Experimental: The method used to derive the above data was as follows. Electrospray LC/MS/MS Assay of RD162′ Metabolites ((MI), (MII), (MIII)):
Plasma Extraction Procedures for Concentration Determinations: A human plasma sample (50 μL) was added to a 10-mL glass tube. A 10-μL volume of IS stock solution was added to the tube, followed by addition of 1 M phosphate buffer at pH 3.0 (400 μL). The mixture was vortexed and […] (5 mL) was added. The tube was vortexed for 30 sec and then centrifuged at 4540 g for 10 min. The solvent was transferred to a glass tube and dried under air flow at 35-40° C. The sample was reconstituted with 100 μL of methanol: 0.1% formic acid in water (7:3) vortexed for 30 sec, and sonicated for 5 min. The sample was transferred to an HPLC sample vial and centrifuged at 4540 g for 5 min. A 20-μL volume was then injected onto an LC/MS/MS system for assay.
HP1100 LC Pump Initial Conditions: HPLC Column: ACE C18, 5 μM, 150×2.1 mm id. Solvents: A % 40.0; B % 60.0; C % 0.0; D % 0.0; Valve A set to channel 1; Valve B set to channel 1. Flow: 0.300 mL/min; Stop Time: 9.0 min; MM. Pressure: 0 bar; Max. Pressure: 300 bar; Oven Temperature Left: 30.0° C.; Oven Temperature Right: 30.0° C.
LC/MS/MS Parameters for RD162′ Metabolite (MI)
Instrument Parameters—Function 1: Polarity ES-; Data type: MRM data; Function type: MRM of 5 channels.
HPLC Column: ACE C18, 5 μM, 150×2.1 mm id; HP1100 LC Pump mode: Isocratic; Isocratic solvent conditions: A % 25.0; B % 75.0; C % 0.0; D % 0.0; Valve A set to channel 1; Valve B set to channel 1; Flow: 0.300 mL/min; Stop Time: 4.5 min; Min. Pressure: 0 bar; Max. Pressure: 300 bar: Oven Temperature Left: 30.0° C.; Oven Temperature Right: 30.0° C.

Row | SMILES | % Inhibition of Control Specific Binding @ 10 μM [1] | inhibition at 10 µM (Bradykinin B2 (h)) | inhibition at 10 µM (Neurokinin NK1 (h)) | % Inhibition of Control Specific Binding @ 10 μM (Adrenergic α2 (ns)) | inhibition at 10 µM (GABA transaminase) | inhibition at 10 µM [2] | inhibition at 10 µM (hERG) | Concentrations in Patients' Plasma Expressed as a Percentage of the Concentration of RD162′, Average [3] | Concentrations in Patients' Plasma Expressed as a Percentage of the Concentration of RD162′, Maximum [3] | Concentrations in Patients' Plasma Expressed as a Percentage of the Concentration of RD162′, Minimum [3] | concentration in the plasma (in words) [3]
1 | CNC(=O)c1ccc(N2C(=O)N(c3ccc(C#N)c(C(F)(F)F)c3)C(=O)C2(C)C)cc1F [(MIV), 4-(3-(4-cyano-3-(trifluoromethyl)phenyl)-5,5-dimethyl-2,4-dioxoimidazolidin-1-yl)-2-fluoro-N-methylbenzamide] | 1% | 0% | -7% | −7% | -1% | -12% | 10% |  |  |  | 
2 | CC1(C)C(=O)N(c2ccc(C#N)c(C(F)(F)F)c2)C(=S)N1c1ccc(C(=O)O)c(F)c1 [(MI), 4-(3-(4-cyano-3-(trifluoromethyl)phenyl)-5,5-dimethyl-4-oxo-2-thioxoimidazolidin-1-yl)-2-fluorobenzoic acid] | 2% | 2% | -7% | −7% | -7% | -10% | -39% | 60% | 259% | 16% | high concentrations
3 | CC1(C)C(=O)N(c2ccc(C#N)c(C(F)(F)F)c2)C(=O)N1c1ccc(C(N)=O)c(F)c1 [(MIII), 4-(3-(4-cyano-3-(trifluoromethyl)phenyl)-5,5-dimethyl-2,4-dioxoimidazolidin-1-yl)-2-fluorobenzamide] | −2% | -3% | -9% | −7% | -2% | -18% | 8% | 4% | 14% | 1% | low concentrations
4 | CC1(C)C(=O)N(c2ccc(C#N)c(C(F)(F)F)c2)C(=S)N1c1ccc(C(N)=O)c(F)c1 [(MII), 4-(3-(4-Cyano-3-(trifluoromethyl)phenyl)-5,5-dimethyl-4-oxo-2-thioxoimidazolidin-1-yl)-2-fluorobenzamide] | 22% | -12% | 9% | −9% | -5% | -18% | 7% | 112% | 204% | 49% | high concentrations

— US8524755B2 (priority 2009, dated 2013)
